Data as given in BigSolDB 2.1.

COC(=O)c1cccc(C(=O)OC)n1
solubility (mole fraction)
Conditions | 278.15 K | 283.15 K | 288.15 K | 293.15 K | 298.15 K | 303.15 K | 308.15 K | 313.15 K | 318.15 K | 323.15 K
in DMSO | – | – | – | 0.0174 | 0.0205 | 0.0271 | 0.0323 | 0.0435 | 0.0503 | 0.0658
in THF | 0.00553 | 0.00773 | 0.00891 | 0.0115 | 0.0138 | 0.0166 | 0.0219 | 0.0293 | 0.0373 | 0.046
in ethanol | 0.00042 | 0.00068 | 0.00103 | 0.00147 | 0.00215 | 0.00323 | 0.00436 | 0.00576 | 0.00757 | 0.0101
in ethyl acetate | 0.00335 | 0.00364 | 0.00549 | 0.0082 | 0.0105 | 0.0149 | 0.019 | 0.0261 | 0.0326 | –
in isopentyl acetate | 0.00146 | 0.00192 | 0.00252 | 0.00334 | 0.00438 | 0.00576 | 0.00729 | 0.00944 | 0.0158 | 0.0216
in isopropanol | 0.00032 | 0.00049 | 0.00071 | 0.00116 | 0.0017 | 0.0022 | 0.0032 | 0.00414 | 0.00579 | 0.00785
in isopropyl acetate | 0.00191 | 0.00235 | 0.00343 | 0.00516 | 0.00721 | 0.0094 | 0.0117 | 0.0161 | 0.0202 | 0.0262
in methanol | 0.00057 | 0.00092 | 0.00142 | 0.00199 | 0.00283 | 0.00425 | 0.0055 | 0.0075 | 0.00974 | 0.012
in methyl acetate | 0.00524 | 0.00759 | 0.0118 | 0.0145 | 0.0201 | 0.0255 | 0.0312 | 0.041 | 0.0489 | 0.0635
in n-butyl acetate | 0.0015 | 0.00203 | 0.00286 | 0.00462 | 0.00671 | 0.00883 | 0.0113 | 0.0158 | 0.0201 | 0.026
in n-pentyl acetate | – | 0.0027 | 0.0038 | 0.00459 | 0.00625 | 0.00851 | 0.0111 | 0.015 | 0.0189 | 0.0243
in n-propanol | 0.00032 | 0.0005 | 0.00078 | 0.0011 | 0.00171 | 0.00228 | 0.00357 | 0.00476 | 0.00621 | 0.00839
